Source: US11542235B2, “Herbicidal 3-azaspiro[5.5] undecane-8, 10-dione compounds” (SYNGENTA PARTICIPATIONS AG, priority 2018, dated 2023)

What was measured:
Assay type in all cases: in vivo
Lolium perenne (LOLPE) = experiment: Glasshouse herbicidal test, pre- and post-emergence, Lolium perenne; details: 250 g/h, evaluated after 13 days, five point scale; for percentage damage caused to the plant, LOLPE POST: post-emergence; for percentage damage caused to the plant, LOLPE PRE: pre-emergence
Description: (§1) Seeds of a variety of test species are sown in standard soil in pots (Lolium perenne (LOLPE), Setaria faberi (SETFA), Alopecurus myosuroides (ALOMY), Echinochloa crus-galli (ECHCG), Avena fatua (AVEFA)). After cultivation for one day (pre-emergence) or after 8 days cultivation (post-emergence) under controlled conditions in a glasshouse (at 24/16° C., day/night; 14 hours light; 65% humidity), the plants are sprayed with an aqueous spray solution derived from the formulation of the technical active ingredient in acetone/water (50:50) solution containing 0.5% Tween 20 (polyoxyethelyene sorbitan monolaurate, CAS RN 9005-64-5). Compounds are applied at […]. The test plants are then grown in a glasshouse under controlled conditions in a glasshouse (at 24/16° C., day/night; 14 hours light; 65% humidity) and watered twice daily. After 13 days for pre and post-emergence, the test is evaluated for the percentage damage caused to the plant. The biological activities are shown in the following table on a five point scale (5=80-100%; 4=60-79%; 3=40-59%; 2=20-39%; 1=0-19%).

[1] = tested on: Echinochloa crus-galli (ECHCG); experiment: Glasshouse herbicidal test, pre- and post-emergence, Echinochloa crus-galli; details: 250 g/h, evaluated after 13 days, five point scale; for percentage damage caused to the plant, ECHCG POST: post-emergence; for percentage damage caused to the plant, ECHCG PRE: pre-emergence
Description: as §1

Avena fatua (AVEFA) = experiment: Glasshouse herbicidal test, pre- and post-emergence, Avena fatua; details: 250 g/h, evaluated after 13 days, five point scale; for percentage damage caused to the plant, AVEFA POST: post-emergence; for percentage damage caused to the plant, AVEFA PRE: pre-emergence
Description: as §1

[2] = tested on: Alopecurus myosuroides (ALOMY); experiment: Glasshouse herbicidal test, pre- and post-emergence, Alopecurus myosuroides; details: 250 g/h, evaluated after 13 days, five point scale; for percentage damage caused to the plant, ALOMY POST: post-emergence; for percentage damage caused to the plant, ALOMY PRE: pre-emergence
Description: as §1

Setaria faberi (SETFA) = experiment: Glasshouse herbicidal test, pre- and post-emergence, Setaria faberi; details: 250 g/h, evaluated after 13 days, five point scale; for percentage damage caused to the plant, SETFA POST: post-emergence; for percentage damage caused to the plant, SETFA PRE: pre-emergence
Description: as §1

CC#Cc1cc(C)c(C2C(=O)CC3(CCN(C(=O)C(F)(F)C(F)F)CC3)CC2=O)c(C)c1 [Compound A29]
5 (5=80-100%): percentage damage caused to the plant, LOLPE POST (Lolium perenne (LOLPE)) | percentage damage caused to the plant, LOLPE PRE (Lolium perenne (LOLPE)) | percentage damage caused to the plant, ECHCG POST [1] | percentage damage caused to the plant, ECHCG PRE [1] | percentage damage caused to the plant, AVEFA POST (Avena fatua (AVEFA)) | percentage damage caused to the plant, AVEFA PRE (Avena fatua (AVEFA)) | percentage damage caused to the plant, ALOMY POST [2] | percentage damage caused to the plant, ALOMY PRE [2] | percentage damage caused to the plant, SETFA POST (Setaria faberi (SETFA)) | percentage damage caused to the plant, SETFA PRE (Setaria faberi (SETFA))

CC#Cc1cc(C)c(C2=C(OC(=O)C(C)(C)C)CC3(CCN(OC)CC3)CC2=O)c(C)c1 [Compound P1]
5 (5=80-100%): percentage damage caused to the plant, LOLPE POST (Lolium perenne (LOLPE)) | percentage damage caused to the plant, LOLPE PRE (Lolium perenne (LOLPE)) | percentage damage caused to the plant, ECHCG POST [1] | percentage damage caused to the plant, ECHCG PRE [1] | percentage damage caused to the plant, AVEFA POST (Avena fatua (AVEFA)) | percentage damage caused to the plant, AVEFA PRE (Avena fatua (AVEFA)) | percentage damage caused to the plant, ALOMY POST [2] | percentage damage caused to the plant, ALOMY PRE [2] | percentage damage caused to the plant, SETFA POST (Setaria faberi (SETFA)) | percentage damage caused to the plant, SETFA PRE (Setaria faberi (SETFA))

CC#Cc1cc(C)c(C2=C(OC(C)=O)CC3(CCN(OC)CC3)CC2=O)c(C)c1 [Compound P2]
5 (5=80-100%): percentage damage caused to the plant, LOLPE POST (Lolium perenne (LOLPE)) | percentage damage caused to the plant, LOLPE PRE (Lolium perenne (LOLPE)) | percentage damage caused to the plant, ECHCG POST [1] | percentage damage caused to the plant, ECHCG PRE [1] | percentage damage caused to the plant, AVEFA POST (Avena fatua (AVEFA)) | percentage damage caused to the plant, AVEFA PRE (Avena fatua (AVEFA)) | percentage damage caused to the plant, ALOMY POST [2] | percentage damage caused to the plant, ALOMY PRE [2] | percentage damage caused to the plant, SETFA POST (Setaria faberi (SETFA)) | percentage damage caused to the plant, SETFA PRE (Setaria faberi (SETFA))

CC#Cc1cc(C)c(C2=C(OC(=O)OC)CC3(CCN(OC)CC3)CC2=O)c(C)c1 [Compound P3]
5 (5=80-100%): percentage damage caused to the plant, LOLPE POST (Lolium perenne (LOLPE)) | percentage damage caused to the plant, LOLPE PRE (Lolium perenne (LOLPE)) | percentage damage caused to the plant, ECHCG POST [1] | percentage damage caused to the plant, ECHCG PRE [1] | percentage damage caused to the plant, AVEFA POST (Avena fatua (AVEFA)) | percentage damage caused to the plant, AVEFA PRE (Avena fatua (AVEFA)) | percentage damage caused to the plant, ALOMY POST [2] | percentage damage caused to the plant, ALOMY PRE [2] | percentage damage caused to the plant, SETFA POST (Setaria faberi (SETFA)) | percentage damage caused to the plant, SETFA PRE (Setaria faberi (SETFA))

CC#Cc1cc(C)c(C2=C(OC(C)=O)CC3(CCN(C(C)=O)CC3)CC2=O)c(C)c1 [Compound P4, [3-acetyl-9-(2,6-dimethyl-4-prop-1-ynyl-phenyl)-10-oxo-3-azaspiro[5.5]undec-8-en-8-yl] acetate]
5 (5=80-100%): percentage damage caused to the plant, LOLPE POST (Lolium perenne (LOLPE)) | percentage damage caused to the plant, LOLPE PRE (Lolium perenne (LOLPE)) | percentage damage caused to the plant, ECHCG POST [1] | percentage damage caused to the plant, ECHCG PRE [1] | percentage damage caused to the plant, AVEFA POST (Avena fatua (AVEFA)) | percentage damage caused to the plant, AVEFA PRE (Avena fatua (AVEFA)) | percentage damage caused to the plant, ALOMY POST [2] | percentage damage caused to the plant, ALOMY PRE [2] | percentage damage caused to the plant, SETFA PRE (Setaria faberi (SETFA))

CC#Cc1cc(C)c(C2=C(OC(=O)OC)CC3(CCN(C(C)=O)CC3)CC2=O)c(C)c1 [Compound P5]
5 (5=80-100%): percentage damage caused to the plant, LOLPE POST (Lolium perenne (LOLPE)) | percentage damage caused to the plant, LOLPE PRE (Lolium perenne (LOLPE)) | percentage damage caused to the plant, ECHCG POST [1] | percentage damage caused to the plant, ECHCG PRE [1] | percentage damage caused to the plant, AVEFA POST (Avena fatua (AVEFA)) | percentage damage caused to the plant, AVEFA PRE (Avena fatua (AVEFA)) | percentage damage caused to the plant, ALOMY POST [2] | percentage damage caused to the plant, ALOMY PRE [2] | percentage damage caused to the plant, SETFA POST (Setaria faberi (SETFA)) | percentage damage caused to the plant, SETFA PRE (Setaria faberi (SETFA))

CC#Cc1cc(C)c(C2=C(OC(=O)C(C)C)CC3(CCN(C(=O)C(C)C)CC3)CC2=O)c(C)c1 [Compound P7]
5 (5=80-100%): percentage damage caused to the plant, LOLPE POST (Lolium perenne (LOLPE)) | percentage damage caused to the plant, LOLPE PRE (Lolium perenne (LOLPE)) | percentage damage caused to the plant, ECHCG POST [1] | percentage damage caused to the plant, ECHCG PRE [1] | percentage damage caused to the plant, AVEFA POST (Avena fatua (AVEFA)) | percentage damage caused to the plant, AVEFA PRE (Avena fatua (AVEFA)) | percentage damage caused to the plant, ALOMY POST [2] | percentage damage caused to the plant, ALOMY PRE [2] | percentage damage caused to the plant, SETFA POST (Setaria faberi (SETFA)) | percentage damage caused to the plant, SETFA PRE (Setaria faberi (SETFA))
